Consider 60 molecules from the PolyMetriX glass transition set.

`*/C=C/c1ccc(N(C)CCOC(=O)Nc2ccc(C)c(NC(=O)OCCN(C)c3ccc(/C=C/C4=CC(=C(C#N)C#N)C=C(*)O4)s3)c2)s1` (repeat unit) displayed a glass transition temperature of 183.00 °C.
For `*C(=O)NCCCCCCNC(=O)c1ccc(*)nc1` (repeat unit) the value was 80.00 °C; for `*CC(F)(F)C(F)(F)C(F)(F)COC(=O)NCCCCCCNC(=O)O*` (repeat unit), 16.00 °C.
In the case of `*CC1CCC(CNC(=O)c2cccc(C(=O)N*)c2)CC1` (repeat unit) it was 208.00 °C; in that of `*CCCC1(CCCNC(=O)c2cccc(C(=O)N*)c2)c2ccccc2-c2ccccc21` (repeat unit), 175.00 °C.
As to `*CCCC1(CCCNC(=O)c2ccccc2-c2ccccc2C(=O)N*)c2ccccc2-c2ccccc21` (repeat unit), the glass transition temperature was found to be 165.00 °C.
Molecule `*CCCCCCCCCCCCCCCCCCNC(=O)NCc1ccc(CNC(=O)N*)cc1` (repeat unit) registered a glass transition temperature of 52.00 °C.
`*CCCCCCCCCCCCNC(=O)NCCCCCCNC(=O)N*` (repeat unit) had a glass transition temperature of 49.00 °C.
For `*CCCCCCCCCCCCNC(=O)c1ccc(C(=O)N*)c(Sc2ccccc2)c1` (repeat unit) the value was 92.00 °C.
In turn, `*CCCCCCCCCCCCOC(=O)NCCCCCCCCCCNC(=O)O*` (repeat unit) displayed a glass transition temperature of 34.00 °C.
In the case of `*CCCCCCCCCCCOC(=O)Nc1ccc(NC(=O)OCCCCCCCCCCCOc2ccc(-c3ccc(O*)cc3)cc2)c(C)c1` (repeat unit) it was 77.00 °C; in that of `*CCCCCCCCCCNC(=O)c1ccc(C(=O)N*)c(Sc2ccccc2)c1` (repeat unit), 100.00 °C; in that of `*CCCCCCCCCCOC(=O)NCCCCCCNC(=O)O*` (repeat unit), 55.00 °C.
In turn, `*CCCCCCCCNC(=O)c1ccc(C(=O)N*)c(Oc2ccccc2)c1` (repeat unit) had a glass transition temperature of 96.00 °C.
As for `*CCCCCCCCOC(=O)NCCCCCCNC(=O)O*` (repeat unit), the glass transition temperature was found to be 58.00 °C.
`*CCCCCCCCOC(=O)Nc1ccc(NC(=O)OCCCCCCCCOc2ccc(-c3ccc(O*)cc3)cc2)c(C)c1` (repeat unit) returned a glass transition temperature of 81.00 °C.
`*CCCCCCNC(=O)NCc1ccc(CNC(=O)N*)cc1` (repeat unit) came in with a glass transition temperature of 72.00 °C.
`*CCCCCCNC(=O)c1ccccc1-c1ccccc1C(=O)N*` (repeat unit) returned a glass transition temperature of 122.50 °C.
For `*CCCCCCOC(=O)Nc1ccc(C)c(NC(=O)O*)c1` (repeat unit) the value was 32.00 °C; for `*CCCCCOC(=O)NCC(F)(F)C(F)(F)C(F)(F)C(F)(F)CNC(=O)O*` (repeat unit), 33.00 °C.
For the molecule `*CCCCCOC(=O)c1ccccc1C(=O)[O][Cd][O]C(=O)c1ccccc1C(=O)OCCCCCOC(=O)NCCCCCCNC(=O)O*` (repeat unit), the glass transition temperature is -6.80 °C.
`*CCCCOc1ccc(OC(=O)c2ccc(C(=O)Oc3ccc(O*)cc3)c(C(=O)OCC=C)c2)cc1` (repeat unit) had a glass transition temperature of 56.00 °C.
In the case of `*CCN(CCOC(=O)NC(C)(C)c1cccc(C(C)(C)NC(=O)O*)c1)c1ccc(/N=N/c2ccc([N+](=O)[O-])cc2)cc1` (repeat unit) it was 103.00 °C; in that of `*CCN(CCOC(=O)NCC1(C)CC(NC(=O)O*)CC(C)(C)C1)c1ccc(C=C(C#N)C#N)cc1` (repeat unit), 145.00 °C.
`*CCN(CCOC(=O)Nc1ccc(C)c(NC(=O)O*)c1)c1ccc(/C=C/c2ccc([N+](=O)[O-])cc2)cc1` (repeat unit): the glass transition temperature was found to be 121.00 °C.
As to `*CCN(CCOC(=O)Nc1ccc(C)c(NC(=O)O*)c1)c1ccc(/C=C2/NC(=O)NC2=O)cc1` (repeat unit), the glass transition temperature is 178.00 °C.
In the case of `*CCN(CCOC(=O)Nc1ccc(C)c(NC(=O)O*)c1)c1ccc(/N=N/c2ccc(-c3nc4cc([N+](=O)[O-])ccc4[nH]3)cc2)cc1` (repeat unit) it was 188.00 °C.
As for `*CCN(CCOC(=O)Nc1ccc(C)c(NC(=O)O*)c1)c1ccc(/N=N/c2ccc(-c3nc4ccccc4o3)cc2)cc1` (repeat unit), the glass transition temperature stood at 152.00 °C.
For `*CCOC(=O)Nc1ccc(C)c(NC(=O)OCCOc2cc([N+](=O)[O-])ccc2/N=N/c2cn(*)c3ccc(-c4ccccc4)cc23)c1` (repeat unit) the value was 165.00 °C; for `*CCOCCOC(=O)NCCCCCCNC(=O)O*` (repeat unit), 17.00 °C.
As to `*CCOCCOCCOC(=O)NCCCCCCNC(=O)O*` (repeat unit), the glass transition temperature is -6.50 °C.
In the case of `*NC(CCC(=O)OCc1ccc(C(F)(F)F)cc1)C(*)=O` (repeat unit) it was 26.57 °C; in that of `*NC(CCC(=O)OCc1ccc(F)cc1)C(*)=O` (repeat unit), 46.90 °C; in that of `*NC(CCC(=O)OCc1ccc([N+](=O)[O-])cc1)C(*)=O` (repeat unit), 53.2 °C.
In the case of `*NNC(=O)c1ccccc1C(=O)NCCCCCCNC(=O)c1ccccc1C(*)=O` (repeat unit) it was 224.50 °C; in that of `*Nc1cc(NC(=O)c2cc(OCCN(C)c3ccc(C#N)cc3)cc(C(*)=O)c2)cc(C(=O)OCCN(C)c2ccc(S(=O)(=O)C(F)(F)C(F)(F)C(F)(F)C(F)(F)C(F)(F)C(F)(F)C(F)(F)C(F)(F)F)cc2)c1` (repeat unit), 165.00 °C.
On to `*Nc1ccc(Cc2ccc(NC(=O)NCCCCCCCCCCNC(*)=O)cc2)cc1` (repeat unit), for which the glass transition temperature came to 46.00 °C.
For `*Nc1ccc(Cc2ccc(NC(=O)NCCCCCCCCNC(*)=O)cc2)cc1` (repeat unit) the value was 50.00 °C; for `*Nc1ccc(NC(=O)c2ccc(NC(=O)CCCCCCCCC(=O)Nc3ccc(C(*)=O)cc3)cc2)cc1C(=O)OCCCCCCCCCCCCCCCC` (repeat unit), 220.00 °C.
Molecule `*Nc1ccc(NC(=O)c2ccc(NC(=O)CCCCCCCCC(=O)Nc3ccc(C(*)=O)cc3)cc2)cc1C(=O)OCCCCCCCCCCCCCCCCCC` (repeat unit) gave a glass transition temperature of 280.00 °C.
In the case of `*Nc1ccc(NC(=O)c2ccc(NC(=O)CCCCCCCCCCC(=O)Nc3ccc(C(*)=O)cc3)cc2)cc1C(=O)OCCCCCCCCCCCC` (repeat unit) it was 205.50 °C; in that of `*Nc1ccc(NC(=O)c2ccc(NC(=O)CCCCCCCCCCC(=O)Nc3ccc(C(*)=O)cc3)cc2)cc1C(=O)OCCCCCCCCCCCCCCCC` (repeat unit), 199.50 °C.
For `*Nc1ccc(NC(=O)c2ccc(NC(=O)CCCCCCCCCCCCC(=O)Nc3ccc(C(*)=O)cc3)cc2)cc1C(=O)OCCCCCCCCCCCC` (repeat unit) the value was 199.50 °C; for `*Nc1cccc(NC(=O)c2ccc(C(=O)Nc3ccc(C(=O)NC(*)=S)cc3)cc2)c1` (repeat unit), 273.00 °C.
Take `*Nc1ccccc1CCc1ccc(NC(=O)NCCCCCCNC(*)=O)cc1` (repeat unit): the glass transition temperature came to 150.00 °C.
The molecule `*OC(COC(=O)NCCCCCCNC(*)=O)c1ccco1` (repeat unit) yielded a glass transition temperature of 17.00 °C.
In the case of `*[O][Ca][O]C(=O)c1ccccc1C(=O)OCCCCCOC(=O)NCCCCCCNC(=O)OCCCCCOC(=O)c1ccccc1C(*)=O` (repeat unit) it was -2.40 °C.
In the case of `*Oc1ccc(-c2ccc(Oc3ccc(C(=O)c4c(C(=O)c5ccc(*)cc5)c(-c5ccc(F)cc5)c(-c5ccc(F)cc5)c(-c5ccc(F)cc5)c4-c4ccc(F)cc4)cc3)cc2)cc1` (repeat unit) it was 275.00 °C; in that of `*Oc1ccc(-c2ccc(Oc3ccc(C(=O)c4c(C(=O)c5ccc(*)cc5)c(-c5ccccc5)c(-c5ccc6ccccc6c5)c(-c5ccc6ccccc6c5)c4-c4ccccc4)cc3)cc2)cc1` (repeat unit), 290.00 °C.
In the case of `*Oc1ccc(/N=C/C=N/c2ccc(OC(=O)NC3CC(C)(C)CC(C)(CNC(*)=O)C3)cc2)cc1` (repeat unit) it was 62.00 °C; in that of `*Oc1ccc(/N=C/C=N/c2ccc(OC(=O)Nc3cc(NC(*)=O)ccc3C)cc2)cc1` (repeat unit), 76.00 °C.
In turn, `*Oc1ccc(C(=O)Nc2cc(NC(=O)c3ccc(*)cc3)cc(C(=O)OCCOC(=O)/C=C/c3ccc(N(C)C)cc3)c2)cc1` (repeat unit) registered a glass transition temperature of 182.00 °C.
For `*Oc1ccc(C(c2ccc(Oc3ccc(C(=O)c4c(C(=O)c5ccc(*)cc5)c(-c5ccccc5)c(-c5ccc6ccccc6c5)c(-c5ccc6ccccc6c5)c4-c4ccccc4)cc3)cc2)(C(F)(F)F)C(F)(F)F)cc1` (repeat unit) the value was 275.00 °C; for `*Oc1ccc(C2(c3ccc(Oc4ccc(C(=O)c5c(C(=O)c6ccc(*)cc6)c(-c6ccc(F)cc6)c(-c6ccc(F)cc6)c(-c6ccc(F)cc6)c5-c5ccc(F)cc5)cc4)cc3)c3ccccc3-c3ccccc32)cc1` (repeat unit), 293.00 °C.
`*Oc1ccc(NC(=O)Nc2cc(NC(=O)Nc3ccc(*)c(-c4ccc(Oc5ccccc5)cc4)c3)ccc2C)cc1-c1ccc(Oc2ccccc2)cc1` (repeat unit): the glass transition temperature was found to be 279.00 °C.
Molecule `*Oc1ccc(NC(=O)Nc2cc(NC(=O)Nc3ccc(*)cc3)ccc2C)cc1` (repeat unit) registered a glass transition temperature of 269.00 °C.
As for `*Oc1ccc(OC(=O)c2ccc(C(*)=O)cc2Sc2ccc(C)cc2)cc1` (repeat unit), the glass transition temperature came to 134.00 °C.
For `*Oc1ccc(Oc2ccc(C(=O)c3c(C(=O)c4ccc(*)cc4)c(-c4ccc(F)cc4)c(-c4ccc(F)cc4)c(-c4ccc(F)cc4)c3-c3ccc(F)cc3)cc2)cc1` (repeat unit) the value was 266.00 °C; for `*c1ccc(C(=O)NCCCCCCCCCCNC(=O)c2ccc(-c3nc4ccccc4nc3*)cc2)cc1` (repeat unit), 166.00 °C; for `*c1ccc(C(=O)NCCCCCCNC(=O)c2ccc(-c3nc4ccccc4nc3*)cc2)cc1` (repeat unit), 201.00 °C.
